{
  "source": "patent US12285454B2",
  "about": "“Anti-aging chinese herb extract, extraction method and use thereof” (HEALTH LIFE BIOSCIENCES INC, priority 2019, dated 2025)",
  "molecular_target": "T1, telomerase (Homo sapiens, UniProt O14746)",
  "T1 construct": "endogenous in cells; host or cells: CCL137 normal human fibroblast cell line (ATCC)",
  "T1 sequence (O14746 whole entry)": "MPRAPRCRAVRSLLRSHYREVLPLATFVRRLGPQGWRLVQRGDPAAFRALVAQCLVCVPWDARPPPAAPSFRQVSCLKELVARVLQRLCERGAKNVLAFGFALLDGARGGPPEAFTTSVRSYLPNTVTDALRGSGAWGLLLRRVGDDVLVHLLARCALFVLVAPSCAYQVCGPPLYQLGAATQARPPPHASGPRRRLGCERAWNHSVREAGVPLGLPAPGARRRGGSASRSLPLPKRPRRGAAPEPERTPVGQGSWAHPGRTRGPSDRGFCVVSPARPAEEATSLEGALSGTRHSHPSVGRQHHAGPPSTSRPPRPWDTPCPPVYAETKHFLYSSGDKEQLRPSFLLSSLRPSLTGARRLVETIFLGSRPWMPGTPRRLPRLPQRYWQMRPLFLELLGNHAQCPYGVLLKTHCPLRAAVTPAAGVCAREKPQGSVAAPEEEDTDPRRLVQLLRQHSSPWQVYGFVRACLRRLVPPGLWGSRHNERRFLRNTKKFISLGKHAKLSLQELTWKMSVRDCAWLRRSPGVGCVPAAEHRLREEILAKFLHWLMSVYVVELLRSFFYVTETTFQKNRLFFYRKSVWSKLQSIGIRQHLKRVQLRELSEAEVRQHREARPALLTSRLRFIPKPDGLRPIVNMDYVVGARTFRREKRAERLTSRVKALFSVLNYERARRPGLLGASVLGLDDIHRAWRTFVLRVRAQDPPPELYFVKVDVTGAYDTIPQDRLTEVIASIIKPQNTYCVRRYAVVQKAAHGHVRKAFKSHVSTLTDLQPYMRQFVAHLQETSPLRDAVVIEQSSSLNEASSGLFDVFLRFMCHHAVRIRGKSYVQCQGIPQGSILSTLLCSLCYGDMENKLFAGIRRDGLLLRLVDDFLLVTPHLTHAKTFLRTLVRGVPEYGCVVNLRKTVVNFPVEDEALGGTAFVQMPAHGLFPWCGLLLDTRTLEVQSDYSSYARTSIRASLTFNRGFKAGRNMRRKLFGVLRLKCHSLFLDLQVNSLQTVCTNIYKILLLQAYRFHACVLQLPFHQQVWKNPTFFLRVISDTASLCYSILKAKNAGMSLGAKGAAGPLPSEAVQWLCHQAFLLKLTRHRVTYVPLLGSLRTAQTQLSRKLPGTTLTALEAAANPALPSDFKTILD",
  "assay": "Telomerase activity by PCR-ELISA (TRAP) in normal human fibroblasts",
  "format": "cell-based",
  "details": "CCL137 normal human fibroblasts, X ± S, N = 9",
  "text": "• Telomerase Activity Assay Kit (Roche, Switzerland); • CCL137 human fibroblast cell lines (American Type Culture Collection (ATCC)); • Ginseng-Astragalus membranaceus extract: the extract prepared in Example 1 of the present invention; • Astragalus membranaceus extract: the Astragalus membranaceus extract prepared in Example 3 of the present invention; • Ginseng extract: the ginseng extract prepared in Example 2 of the present invention. Method The effects of different extracts on the telomerase activity were detected by PCR-ELISA. Principle: This method is based on establishment of Telomeric Repeat Amplification Protocol (TRAP), which is used for PCR Amplification of telomerase mediated derivatives and combined with the subsequent ELISA method. […]\nFor the sample of each group, to the EP tube, 20 μl of the denaturing reagent were added and marked, and 5 μl of the obtained product after the PCR amplification was added. […] The absorbance value is then detected at 450 nm using the microplate reader and A690 nm was taken as a reference, and the value of the negative control will be subtracted from the absorption value for the sample of each group. […]\nThe test results were analyzed and processed by a SPSS18.0 statistical software. […]\nThe test methods and procedures for detection of the telomerase activity were the same as the Test Example 1, and the measured results were shown in Table 5.",
  "data": [
    {"substance": "Astragaloside", "values": [
      {"measurement": "Telomerase activity (ΔA)", "setting": "Table 5, high concentration group, extract concentration 100 ug/mL", "value": 0.436},
      {"measurement": "Telomerase activity (ΔA)", "setting": "Table 5, medium concentration group, extract concentration 50 ug/mL", "value": 0.453}
    ]}
  ]
}
